Holding throughout (assay): NCI tumour cell line growth inhibition, 48 h
Experiment [1] relates to RPMI-8226.
The test system of experiment [2] is IGROV-1.
Experiment [3] concerns SNB-19.
Experiment [4] has as its system MOLT-4.
Experiment [5] concerns SK-MEL-28.
The test system of experiment [6] is A498.
The test system of experiment [7] is HL-60.
In experiment [8] the test system is UO-31.
For experiment [9], the system named is OVCAR-4.
Experiment [10] has as its system A549.
The subject of experiment [11] is 786-0.
In experiment [12] the test system is COLO 205.
The subject of experiment [13] is SF-539.
The test system of experiment [14] is SK-OV-3.
The test system of experiment [15] is HOP-92.

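In this assay, cells in 96-well plates receive the compound at five concentrations for 48 hours. Endpoints are linearly interpolated between the surrounding concentrations. GI50: concentration for 50% inhibition of growth.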 Active and inactive are the calls of the source. Cut-off read from the data, not from the text of the source: active = GI50 up to about 1.1 µM and inactive = higher. A value given as a limit tells only on which side of the number the result lay.

The text below walks through data of ChEMBL document CHEMBL1201862, “PubChem BioAssay data set” (2004).

Consider `COc1ccc2c(CCNC(C)=O)c(C(C)=O)[nH]c2c1`, for which the GI50 in [1], in experiment [2], in experiment [3], in experiment [4], in experiment [5] and in [6] was > 100 µM (inactive) in each case. Moreover, the GI50 in [7], in experiment [8], in [9], in experiment [10], in experiment [11] and in [12] was > 100 µM (inactive) in each case. The GI50 in experiment [13] was > 100 µM (inactive).

Take `O=C(O)c1ccccc1NS(=O)(=O)c1ccc([N+](=O)[O-])cc1`: the GI50 in experiment [1], in experiment [2], in [3], in experiment [4], in experiment [5] and in experiment [8] was > 100 µM (inactive) each time. Moreover, the GI50 in [14], in [9], in [10], in experiment [11], in experiment [12] and in experiment [13] was > 100 µM (inactive) each time.

Turning to `CCN(CC)c1ccc(/N=C2/C=CC(=O)c3ncccc32)c(C)c1`, the GI50 is 2.93 µM (inactive) in [1]; 6.65 µM (inactive) in experiment [2]; 16.1 µM (inactive) in experiment [3]; 2 µM (inactive) in [4]; 11.8 µM (inactive) in [5]; 6.75 µM (inactive) in experiment [15]. In addition, the GI50 was 2.19 µM (inactive) in experiment [7]; 16.6 µM (inactive) in experiment [8]; 20 µM (inactive) in experiment [14]; 2.11 µM (inactive) in experiment [9]; 11.2 µM (inactive) in experiment [10]; 5.02 µM (inactive) in [11]. Also, the GI50 in [12] is 2.18 µM (inactive); in [13], 5.56 µM (inactive).

With `CC1=C(C)C(=O)c2c(cc3ccc4ccccc4n23)C1=O`, the GI50 in experiment [1], in [2], in experiment [3], in [4], in experiment [5] and in experiment [6] was > 100 µM (inactive) each time. The GI50 in experiment [7], in [8], in [14], in experiment [9], in [10] and in [11] was > 100 µM (inactive) each time. Moreover, the GI50 in experiment [12] and in experiment [13] was > 100 µM (inactive) in each case.

For the compound `CCOC(=O)CCn1cnc(N)n1`, the GI50 in [1], in [2], in experiment [3], in [4], in [5] and in experiment [15] was > 100 µM (inactive) throughout. Moreover, the GI50 in [7], in experiment [8], in experiment [14], in [9], in [10] and in [11] was > 100 µM (inactive) each time. The GI50 in [12] and in experiment [13] was > 100 µM (inactive) throughout.

Turning to `CN(C)CCNC(=O)c1cccc2c(Nc3ccc(S(=O)(=O)N=C(N)N)cc3)c3ccccc3nc12`, the GI50 was 7.1 µM (inactive) in [2]; 3.37 µM (inactive) in experiment [3]; 2.03 µM (inactive) in experiment [4]; 24.5 µM (inactive) in experiment [5]; 0.684 µM (active) in [7]; 10 µM (inactive) in experiment [8]. For the same compound, the GI50 is 13.5 µM (inactive) in [9]; 10.6 µM (inactive) in experiment [10]; 18 µM (inactive) in experiment [11]; 9.04 µM (inactive) in [12]; 11.3 µM (inactive) in [13].

Turning to `C/C(CCN(C)C)=N/O`, the GI50 is 0.313 µM (active) in experiment [1]; 18.9 µM (inactive) in experiment [2]; 35.9 µM (inactive) in experiment [3]; 0.328 µM (active) in experiment [4]; 7.13 µM (inactive) in experiment [5]; 9.44 µM (inactive) in experiment [15]. Further, the GI50 was 0.281 µM (active) in experiment [7]; 16 µM (inactive) in experiment [8]; 17.9 µM (inactive) in experiment [14]; < 0.01 µM (active) in experiment [9]; 1.6 µM (inactive) in [10]; 2.81 µM (inactive) in experiment [11]. Besides, the GI50 in experiment [12] was 0.597 µM (active); in [13], 1.14 µM (inactive).

On to `COc1cccc2c1[C@H]1OC(=O)NC1CCCCC2` (stereo partly specified), for which the GI50 in [1], in experiment [2], in experiment [3], in [4], in [5] and in experiment [6] was > 100 µM (inactive) each time. The GI50 in experiment [7], in experiment [8], in experiment [14], in [9], in experiment [10] and in experiment [11] was > 100 µM (inactive) each time. Besides, the GI50 in experiment [12] and in experiment [13] was > 100 µM (inactive) each time.

Turning to `O=C1C=CC=CC2CC=C[C@@H](O)C12` (stereo partly specified), the GI50 is 3.41 µM (inactive) in [1]; 39.6 µM (inactive) in experiment [2]; 22.9 µM (inactive) in [3]; 20.9 µM (inactive) in experiment [4]; 15.9 µM (inactive) in experiment [6]; 15.5 µM (inactive) in [7]. Besides, the GI50 in [8] was 16.4 µM (inactive); in [14], 69.7 µM (inactive); in experiment [9], 31 µM (inactive); in experiment [10] it was 26.2 µM (inactive); in experiment [11] it was 17.2 µM (inactive); in experiment [12], 19.6 µM (inactive). The GI50 in experiment [13] is 24.5 µM (inactive).

As for `CN(C(=O)C12C3C4C1C1C2C3C41C(O)C(C)(C)C)C(C)(C)C` (stereo unspecified), the GI50 in experiment [1], in experiment [2], in experiment [3], in experiment [4], in experiment [5] and in [6] was > 100 µM (inactive) in each case. Also, the GI50 in experiment [7], in [8], in [14], in [9], in [10] and in experiment [11] was > 100 µM (inactive) in each case. In addition, the GI50 in experiment [12] and in experiment [13] was > 100 µM (inactive) in each case.

For the compound `O=C(/C=C/c1ccc(OCCCOc2ccc(/C=C/C(=O)c3ccccc3)cc2)cc1)c1ccccc1`, the GI50 in experiment [1] is 50.7 µM (inactive); in [2], > 100 µM (inactive); in [3], 63.2 µM (inactive); in experiment [4] it was > 100 µM (inactive); in experiment [5] it was > 100 µM (inactive); in experiment [6], > 100 µM (inactive). Further, the GI50 was > 100 µM (inactive) in experiment [7]; > 100 µM (inactive) in experiment [8]; > 100 µM (inactive) in [9]; > 100 µM (inactive) in [10]; 57.4 µM (inactive) in [11]; > 100 µM (inactive) in [12]. In experiment [13], the GI50 was > 100 µM (inactive).
